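Assay format: 96-well plates, 48-hour exposure. GI50: concentration for 50% inhibition of growth.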 The source made the active and inactive calls. Rule as the data show it: active = GI50 up to about 1.1 µM and inactive = higher.
Key:
Assay in all cases: NCI tumour cell line growth inhibition, 48 h
786-0 = system: 786-0
A549 = system: A549
ACHN = system: ACHN
K562 = system: K562
NCI-H23 = system: NCI-H23
NCI-H460 = system: NCI-H460
NCI-H522 = system: NCI-H522
OVCAR-3 = system: OVCAR-3
SK-MEL-28 = system: SK-MEL-28
SK-MEL-5 = system: SK-MEL-5
SN12C = system: SN12C
SNB-75 = system: SNB-75
TK-10 = system: TK-10
UACC-257 = system: UACC-257
A498 = system: A498
Hs-578T = system: Hs-578T
MDA-MB-231 = system: MDA-MB-231
PC-3 = system: PC-3
MDA-N = system: MDA-N

SMILES: CC(=O)Nc1ccc(C(=O)N2N=C(C)/C(=C\c3c(O)ccc4ccccc34)C2=O)cc1
- GI50 (786-0): > 100 µM (inactive)
- GI50 (A549): > 100 µM (inactive)
- GI50 (ACHN): 30.6 µM (inactive)
- GI50 (K562): 74.8 µM (inactive)
- GI50 (NCI-H23): > 100 µM (inactive)
- GI50 (NCI-H460): > 100 µM (inactive)
- GI50 (NCI-H522): 67 µM (inactive)
- GI50 (OVCAR-3): 91.8 µM (inactive)
- GI50 (SK-MEL-28): 57.8 µM (inactive)
- GI50 (SK-MEL-5): 35.4 µM (inactive)
- GI50 (SN12C): 48.8 µM (inactive)
- GI50 (SNB-75): > 100 µM (inactive)
- GI50 (TK-10): 0.1 µM (active)
- GI50 (UACC-257): > 100 µM (inactive)

SMILES: Cc1ccc(NC(=O)COc2ccc(Cl)cc2)cc1Cl
- GI50 (786-0): 44.5 µM (inactive)
- GI50 (A498): 45.3 µM (inactive)
- GI50 (A549): 74.1 µM (inactive)
- GI50 (ACHN): 42.7 µM (inactive)
- GI50 (Hs-578T): 14.2 µM (inactive)
- GI50 (K562): > 100 µM (inactive)
- GI50 (MDA-MB-231): 15.2 µM (inactive)
- GI50 (NCI-H23): 19.7 µM (inactive)
- GI50 (NCI-H460): > 100 µM (inactive)
- GI50 (NCI-H522): 75.7 µM (inactive)
- GI50 (OVCAR-3): > 100 µM (inactive)
- GI50 (PC-3): > 100 µM (inactive)
- GI50 (SK-MEL-28): > 100 µM (inactive)
- GI50 (SK-MEL-5): > 100 µM (inactive)
- GI50 (SN12C): 38.2 µM (inactive)
- GI50 (SNB-75): 59 µM (inactive)
- GI50 (TK-10): 27.3 µM (inactive)
- GI50 (UACC-257): 83.4 µM (inactive)

SMILES: CCCCCCCCCCCCCCCCCCNc1nc(=O)n(C2CC(OP(=O)(O)OCC3OC(n4cc(F)c(=O)[nH]c4=O)CC3O)C(CO)O2)cc1F (centres undefined)
- GI50 (786-0): 49.4 µM (inactive)
- GI50 (A498): 13 µM (inactive)
- GI50 (A549): 7.24 µM (inactive)
- GI50 (ACHN): 11.2 µM (inactive)
- GI50 (Hs-578T): 35.2 µM (inactive)
- GI50 (K562): 26.9 µM (inactive)
- GI50 (MDA-MB-231): > 100 µM (inactive)
- GI50 (NCI-H23): 38.8 µM (inactive)
- GI50 (NCI-H522): 30.3 µM (inactive)
- GI50 (OVCAR-3): 29 µM (inactive)
- GI50 (PC-3): 22.6 µM (inactive)
- GI50 (SK-MEL-28): 27.1 µM (inactive)
- GI50 (SK-MEL-5): 34.7 µM (inactive)
- GI50 (SN12C): > 100 µM (inactive)
- GI50 (SNB-75): 36.9 µM (inactive)
- GI50 (TK-10): 70.5 µM (inactive)
- GI50 (UACC-257): 61 µM (inactive)

SMILES: O=[N+]([O-])c1ccc(CSc2nn(Cc3ccc([N+](=O)[O-])cc3)cc3ncnc2-3)cc1
- GI50 (786-0): 47.5 µM (inactive)
- GI50 (A498): 18.4 µM (inactive)
- GI50 (A549): 39 µM (inactive)
- GI50 (ACHN): 27.5 µM (inactive)
- GI50 (K562): 31.8 µM (inactive)
- GI50 (MDA-MB-231): 34.4 µM (inactive)
- GI50 (MDA-N): 33 µM (inactive)
- GI50 (NCI-H23): 26.4 µM (inactive)
- GI50 (NCI-H522): 22.3 µM (inactive)
- GI50 (OVCAR-3): 56.2 µM (inactive)
- GI50 (PC-3): 35.5 µM (inactive)
- GI50 (SK-MEL-28): 22.1 µM (inactive)
- GI50 (SK-MEL-5): 32 µM (inactive)
- GI50 (SN12C): 57.4 µM (inactive)
- GI50 (SNB-75): 34.1 µM (inactive)
- GI50 (TK-10): 29 µM (inactive)
- GI50 (UACC-257): 29 µM (inactive)

SMILES: Cn1c(C(C#N)c2nc(Cl)ncc2Br)nc2ccccc21 (centres undefined)
- GI50 (786-0): > 100 µM (inactive)
- GI50 (A498): > 100 µM (inactive)
- GI50 (A549): > 100 µM (inactive)
- GI50 (ACHN): > 100 µM (inactive)
- GI50 (MDA-MB-231): > 100 µM (inactive)
- GI50 (MDA-N): > 100 µM (inactive)
- GI50 (NCI-H23): > 100 µM (inactive)
- GI50 (NCI-H460): > 100 µM (inactive)
- GI50 (NCI-H522): > 100 µM (inactive)
- GI50 (OVCAR-3): > 100 µM (inactive)
- GI50 (SK-MEL-28): > 100 µM (inactive)
- GI50 (SK-MEL-5): > 100 µM (inactive)
- GI50 (SN12C): > 100 µM (inactive)
- GI50 (SNB-75): 82 µM (inactive)
- GI50 (TK-10): > 100 µM (inactive)
- GI50 (UACC-257): > 100 µM (inactive)

SMILES: CC1(C)OC2OC(COC(=O)c3ccc(C#N)cc3)C3OC(C)(C)OC3C2O1 (centres undefined)
- GI50 (786-0): > 75 µM (inactive)
- GI50 (A498): > 75 µM (inactive)
- GI50 (A549): > 75 µM (inactive)
- GI50 (ACHN): > 75 µM (inactive)
- GI50 (K562): > 75 µM (inactive)
- GI50 (MDA-MB-231): > 75 µM (inactive)
- GI50 (MDA-N): > 75 µM (inactive)
- GI50 (NCI-H23): > 75 µM (inactive)
- GI50 (NCI-H522): > 75 µM (inactive)
- GI50 (OVCAR-3): > 75 µM (inactive)
- GI50 (PC-3): > 75 µM (inactive)
- GI50 (SK-MEL-28): > 75 µM (inactive)
- GI50 (SK-MEL-5): > 75 µM (inactive)
- GI50 (SN12C): > 75 µM (inactive)
- GI50 (SNB-75): > 75 µM (inactive)
- GI50 (TK-10): > 75 µM (inactive)
- GI50 (UACC-257): > 75 µM (inactive)

SMILES: N#CCCN(C(=O)Nc1ccccc1)[C@H]1CCCC[C@@H]1N(C(=O)Nc1ccccc1)c1ccccc1
- GI50 (786-0): > 100 µM (inactive)
- GI50 (A549): 58.1 µM (inactive)
- GI50 (ACHN): > 100 µM (inactive)
- GI50 (K562): 49.1 µM (inactive)
- GI50 (MDA-MB-231): > 100 µM (inactive)
- GI50 (MDA-N): > 100 µM (inactive)
- GI50 (NCI-H23): > 100 µM (inactive)
- GI50 (NCI-H460): 48.2 µM (inactive)
- GI50 (NCI-H522): 71.1 µM (inactive)
- GI50 (OVCAR-3): > 100 µM (inactive)
- GI50 (PC-3): 48.1 µM (inactive)
- GI50 (SK-MEL-28): > 100 µM (inactive)
- GI50 (SK-MEL-5): > 100 µM (inactive)
- GI50 (SN12C): > 100 µM (inactive)
- GI50 (SNB-75): 16.7 µM (inactive)
- GI50 (TK-10): > 100 µM (inactive)
- GI50 (UACC-257): > 100 µM (inactive)

SMILES: O=C(COc1ccc(Cl)c(Cl)c1)N(Cc1ccccc1)Cc1ccc[n+](Cc2ccc(Cl)cc2S(=O)(=O)F)c1
- GI50 (786-0): > 100 µM (inactive)
- GI50 (A498): > 100 µM (inactive)
- GI50 (A549): > 100 µM (inactive)
- GI50 (ACHN): 56.4 µM (inactive)
- GI50 (Hs-578T): 40.8 µM (inactive)
- GI50 (K562): 53 µM (inactive)
- GI50 (MDA-MB-231): 14.8 µM (inactive)
- GI50 (NCI-H23): 41.3 µM (inactive)
- GI50 (NCI-H460): > 100 µM (inactive)
- GI50 (NCI-H522): 94.6 µM (inactive)
- GI50 (OVCAR-3): 65.5 µM (inactive)
- GI50 (PC-3): > 100 µM (inactive)
- GI50 (SK-MEL-28): 26.8 µM (inactive)
- GI50 (SK-MEL-5): 22.6 µM (inactive)
- GI50 (SN12C): > 100 µM (inactive)
- GI50 (SNB-75): > 100 µM (inactive)
- GI50 (TK-10): 53.3 µM (inactive)
- GI50 (UACC-257): 35.4 µM (inactive)
